Assay results taken from patent US9302967B2, “Substituted cathechols as inhibitors of IL-4 and IL-5 for the treatment of bronchial asthma” (Council of Scientific & Industrial Research, priority 2011, dated 2016).
pIC50: −log10 of the molar value. Read-outs that look alike come from different tables or passages of the source.

Tests used:
IL-5 = assay: PHA-stimulated human PBMC, IL-5 in supernatant by Cytometric Bead Array; assay type: cell-based; details: PHA 10 μg/ml, read-out: IC50 inhibitory activity, stimulation-induced IL-5
Method: Normal human peripheral blood mononuclear cells (PBMC) were stimulated with phytohemagglutinin (PHA) 10 μg/ml in the presence and absence of varying concentrations of compounds of formula I and II. Culture supernatants were harvested and IIL-4 and IL-5 cytokines were quantitated by Cytometric Bead Array (CBA™) kit (Becton Dickinson, USA) following manufacturers instructions using a Flow Cytometer (BD LSR, Becton Dickinson) and CBA™ analysis software (Becton Dickinson).

[1] = 14 d acute oral toxicity: immunotoxicity (EPA guideline 1998); assay type: in vivo, mice; details: for Bone marrow cell viability % / Lymph node lymphocyte viability % (pooled) / Splenocyte viability %: 14 d acute
Method: 14 d acute oral toxicity of compound 1 of formula I was performed. […]
(§1) Immunotoxicity in mice was performed in accordance to EPA guideline (1998). […] Humoral immunity was measured in terms of HA titer and plaque forming cell assay. […] Cell mediated immunity was measured in terms of % increase in paw volume in mice sensitized with SRBC.

[2] = mouse, in vivo
Method: (§2) Earlier, LD50 of ICB 14 C6 was derived from in vitro cytotoxicity assay by NRUmethod in 3T3 cells. […] For 90d sub-chronic toxicity study the highest dose selected was one-fourth of the limit dose. Four different doses of ICB14 C6 (47, 23, 12 and 0 [vehicle] mg/kg body weight) were prepared in ground nut oil daily for 5 days a week for 90d.
Blood samples were taken from the retro-orbital sinus on day 91 for hematological and clinical chemistry analyses. Clinical analysis included serum creatinine, serum gammaGT, serum uric acid, serum glucose, serum protein, serum bilirubin, serum GOT/AST and serum GPT/ALT. Hematology including white blood cell count was analyzed with the help of Automatic Hematology Analyzer (Medonic).
The blood left after the hematological studies were allowed to clot for 2 h and serum separated by centrifugation at 3000 rpm for 5 min and subsequently used for clinical biochemistry using kits from Spinreact S.A. (Girona, Spain). Procedural details given in the technical bulletin were followed for the measurement of different serum parameters.

[3] = 90 d sub-chronic oral toxicity: immunotoxicity; assay type: in vivo
Method: as §1, §2

COX-1 = COX-1 (Homo sapiens, UniProt P23219); details: cited from earlier work
Chain of COX-1 (P23219 24-599): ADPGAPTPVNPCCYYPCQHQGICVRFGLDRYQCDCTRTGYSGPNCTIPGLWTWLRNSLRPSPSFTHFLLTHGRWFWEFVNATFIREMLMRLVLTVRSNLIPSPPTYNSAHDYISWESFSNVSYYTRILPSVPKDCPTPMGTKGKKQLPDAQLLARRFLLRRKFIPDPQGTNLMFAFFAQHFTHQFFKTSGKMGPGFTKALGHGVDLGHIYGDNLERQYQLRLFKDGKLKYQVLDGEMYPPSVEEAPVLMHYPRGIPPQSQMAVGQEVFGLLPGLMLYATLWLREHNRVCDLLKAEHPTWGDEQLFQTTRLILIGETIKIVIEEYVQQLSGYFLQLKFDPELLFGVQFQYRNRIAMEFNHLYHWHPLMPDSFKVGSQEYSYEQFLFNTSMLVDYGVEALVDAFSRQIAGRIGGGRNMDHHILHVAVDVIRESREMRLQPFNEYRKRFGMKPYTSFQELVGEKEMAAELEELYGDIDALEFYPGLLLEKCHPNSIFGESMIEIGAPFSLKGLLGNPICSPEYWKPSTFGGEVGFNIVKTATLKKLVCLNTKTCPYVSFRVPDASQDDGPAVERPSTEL

COX-2 = molecular target: T1, COX-2 (Homo sapiens, UniProt P35354); details: cited from earlier work
T1 sequence (P35354 18-604): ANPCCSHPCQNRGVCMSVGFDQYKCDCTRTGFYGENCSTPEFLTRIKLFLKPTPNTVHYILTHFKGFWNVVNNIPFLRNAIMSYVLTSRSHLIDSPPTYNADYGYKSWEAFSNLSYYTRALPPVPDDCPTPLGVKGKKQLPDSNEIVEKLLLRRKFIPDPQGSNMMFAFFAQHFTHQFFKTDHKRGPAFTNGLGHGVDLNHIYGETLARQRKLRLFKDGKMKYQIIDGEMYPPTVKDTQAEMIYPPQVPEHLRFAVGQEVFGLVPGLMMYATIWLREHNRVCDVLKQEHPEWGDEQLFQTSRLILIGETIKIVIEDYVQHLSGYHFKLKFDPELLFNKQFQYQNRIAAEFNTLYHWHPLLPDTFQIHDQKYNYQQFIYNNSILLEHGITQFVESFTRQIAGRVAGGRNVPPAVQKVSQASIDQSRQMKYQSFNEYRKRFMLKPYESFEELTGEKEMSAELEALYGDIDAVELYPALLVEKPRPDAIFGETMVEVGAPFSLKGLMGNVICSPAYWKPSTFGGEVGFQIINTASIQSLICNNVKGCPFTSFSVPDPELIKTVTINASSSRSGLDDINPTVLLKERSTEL

For `C=CCc1ccc(O)c(O)c1` [Compound 1, 4-allyl-benzene-1,2-diol], the pIC50 (IL-5; Homo sapiens) was 5.35, the pIC50 (IL-5) was 5.30 and the “Bone marrow cell viability %” value ([1]; 12 mg/kg bw) was greater than 98%. The “Lymph node lymphocyte viability % (pooled)” value ([1]; 12 mg/kg bw) was greater than 98%, the Splenocyte viability % ([1]; 12 mg/kg bw) was 97.69 ± 0.96% and the “Bone marrow cell viability %” value ([1]; 23 mg/kg bw) was greater than 98%. For the same molecule, the “Lymph node lymphocyte viability % (pooled)” value ([1]; 23 mg/kg bw) was greater than 98%, the Splenocyte viability % ([1]; 23 mg/kg bw) was 97.64 ± 0.73% and the “Bone marrow cell viability %” value ([1]; 47 mg/kg bw) was greater than 98%. For the same molecule, the “Lymph node lymphocyte viability % (pooled)” value ([1]; 47 mg/kg bw) was greater than 98%, the Splenocyte viability % ([1]; 47 mg/kg bw) was 98.25 ± 0.92% and the “DTH response (cell mediated immunity)” value ([1]; mouse, in vivo) was “insignificant changes in the DTH response”. The “viability of bone marrow cells, splenocyte and lymph node lymphocyte (trypan blue)” value ([1]; mouse, in vivo) was “No significant changes”, the “HA tire (reciprocal of the last dilution showing positive reaction)” value (from here on “HA tire”) ([1]; mouse, in vivo, 12 mg/kg) was 2560 and the PFC ([1]; mouse, in vivo, 12 mg/kg) was 10333 ± 3008 per 10^6lymphocytes. The “PFC and HA titre against SRBC antigen” value ([1]; mouse, in vivo, 21 mg/kg) was “did not show any significant change”, the “DTH response (%)” value ([1]; mouse, in vivo, 23 mg/kg) was 19.24 ± 10.5% and the “HA tire” value ([1]; mouse, in vivo, 23 mg/kg) was 2560. For the same molecule, the PFC ([1]; mouse, in vivo, 23 mg/kg) was 11633 ± 3636 per 10^6lymphocytes, the “DTH response (%)” value ([1]; mouse, in vivo, 47 mg/kg) was 17.75 ± 9.8% and the “HA tire” value ([1]; mouse, in vivo, 47 mg/kg) was 1280. For the same molecule, the PFC ([1]; mouse, in vivo, 47 mg/kg) was 2800 ± 1288 per 10^6lymphocytes, the “Activities of AST, ALT and gammaGT enzymes vs normal range” value [2] was “within the normal range” and the Bilirubin ([2]; 12 mg/kg) was 0.91 ± 0.47 mg/dL. It also gave a Creatinine ([2]; 12 mg/kg) of 1.03 ± 0.48 mg/dL, a GOT/AST ([2]; 12 mg/kg) of 12.25 ± 2.18 U/L and a GPT/ALT ([2]; 12 mg/kg) of 8.56 ± 3.79 U/L. The Glucose ([2]; 12 mg/kg) was 79.89 ± 22.82 mg/dL, the LDH ([2]; 12 mg/kg) was 175.3 ± 18 U/L and the Total protein ([2]; 12 mg/kg) was 8.63 ± 1.81 g/dL. For the same molecule, the Uric acid ([2]; 12 mg/kg) was 6.05 ± 3.9 mg/dL, the gammaGT ([2]; 12 mg/kg) was 12.73 ± 6.74 U/L and the Bilirubin ([2]; 23 mg/kg) was 0.37 ± 012 mg/dL. The Creatinine ([2]; 23 mg/kg) was 1.10 ± 0.65 mg/dL, the GOT/AST ([2]; 23 mg/kg) was 13.56 ± 6.88 U/L and the GPT/ALT ([2]; 23 mg/kg) was 12.84 ± 7.9 U/L. The Glucose ([2]; 23 mg/kg) was 61.66 ± 13.08 mg/dL, the LDH ([2]; 23 mg/kg) was 198.6 ± 27 U/L and the Total protein ([2]; 23 mg/kg) was 6.52 ± 2.61 g/dL. The Uric acid ([2]; 23 mg/kg) was 7.15 ± 0.62 mg/dL, the gammaGT ([2]; 23 mg/kg) was 15.29 ± 5.38 U/L and the Bilirubin ([2]; 47 mg/kg) was 0.54 ± 0.39 mg/dL. It also gave a Creatinine ([2]; 47 mg/kg) of 1.36 ± 0.56 mg/dL, a GOT/AST ([2]; 47 mg/kg) of 5.30 ± 1.55 U/L and a GPT/ALT ([2]; 47 mg/kg) of 5.71 ± 9.89 U/L. For the same molecule, the Glucose ([2]; 47 mg/kg) was 86.42 ± 6.39 mg/dL, the LDH ([2]; 47 mg/kg) was 210.5 ± 25 U/L and the Total protein ([2]; 47 mg/kg) was 7.78 ± 1.37 g/dL. For the same molecule, the Uric acid ([2]; 47 mg/kg) was 5.59 ± 1.26 mg/dL, the gammaGT ([2]; 47 mg/kg) was 15.66 ± 2.63 U/L and the “Bone marrow cell viability %” value ([3]; 90 d, 12 mg/kg bw) was 97.26 ± 0.88%. For the same molecule, the “Lymph node lymphocyte viability % (pooled)” value ([3]; 90 d, 12 mg/kg bw) was 97.40 ± 0.61%, the Splenocyte viability % ([3]; 90 d, 12 mg/kg bw) was 96.79 ± 0.36% and the “Bone marrow cell viability %” value ([3]; 90 d, 23 mg/kg bw) was 96.80 ± 1.15%. The “Lymph node lymphocyte viability % (pooled)” value ([3]; 90 d, 23 mg/kg bw) was 98.28 ± 0.80%, the Splenocyte viability % ([3]; 90 d, 23 mg/kg bw) was 96.56 ± 0.80% and the “Bone marrow cell viability %” value ([3]; 90 d, 47 mg/kg bw) was 95.45 ± 0.31%. The “Lymph node lymphocyte viability % (pooled)” value ([3]; 90 d, 47 mg/kg bw) was 98.17 ± 0.05%, the Splenocyte viability % ([3]; 90 d, 47 mg/kg bw) was 96.45 ± 0.62% and the “Lymph node lymphocyte, splenocytes and bone marrow cell viabilities” value ([3]; 90 d, all the groups) was greater than 94%. The “B cell function (PFC)” value ([3]; mouse, in vivo) was “Dose dependant decrease in B cell function”, the “Total IgA” value ([3]; mouse, in vivo, 12 mg/kg) was 264.25 ± 28.6 ng/mL and the “Total IgE” value ([3]; mouse, in vivo, 12 mg/kg) was 0.69 ± 0.115. The “Total IgG” value ([3]; mouse, in vivo, 12 mg/kg) was 12.98 ± 0.53 mg/mL, the “Total IgM” value ([3]; mouse, in vivo, 12 mg/kg) was 6.65 ± 0.13 and the “DTH response (% increase in paw volume)” value ([3]; mouse, in vivo, 12 mg/kg, 90 d) was 12.12 ± 2.96%. For the same molecule, the “HA tire” value ([3]; mouse, in vivo, 12 mg/kg, 90 d) was 1280, the PFC ([3]; mouse, in vivo, 12 mg/kg, 90 d) was 5533 ± 437 per 10^6lymphocytes and the “Total IgA” value ([3]; mouse, in vivo, 23 mg/kg) was 207.25 ± 9.7 ng/mL. The “Total IgE” value ([3]; mouse, in vivo, 23 mg/kg) was 0.74 ± 0.23, the “Total IgG” value ([3]; mouse, in vivo, 23 mg/kg) was 15.21 ± 0.31 mg/mL and the “Total IgM” value ([3]; mouse, in vivo, 23 mg/kg) was 0.57 ± 0.17. For the same molecule, the “DTH response (% increase in paw volume)” value ([3]; mouse, in vivo, 23 mg/kg, 90 d) was 11.55 ± 3.77%, the “HA tire” value ([3]; mouse, in vivo, 23 mg/kg, 90 d) was 640 and the PFC ([3]; mouse, in vivo, 23 mg/kg, 90 d) was 4911 ± 873 per 10^6lymphocytes. For the same molecule, the “Total IgA” value ([3]; mouse, in vivo, 47 mg/kg) was 167 ± 2.12 ng/mL, the “Total IgE” value ([3]; mouse, in vivo, 47 mg/kg) was 0.65 ± 0.09 and the “Total IgG” value ([3]; mouse, in vivo, 47 mg/kg) was 6.11 ± 0.25 mg/mL. For the same molecule, the “Total IgM” value ([3]; mouse, in vivo, 47 mg/kg) was 1.02 ± 0.30, the “DTH response (% increase in paw volume)” value ([3]; mouse, in vivo, 47 mg/kg, 90 d) was 11.28 ± 3.69% and the “HA tire” value ([3]; mouse, in vivo, 47 mg/kg, 90 d) was 320. For the same molecule, the PFC ([3]; mouse, in vivo, 47 mg/kg, 90 d) was 1849 ± 780 per 10^6lymphocytes, the COX-1 inhibition (COX-1) was “potent COX-1/COX-2 inhibitor” and the COX-2 inhibition (COX-2) was “potent COX-1/COX-2 inhibitor”.
